Reference: US20080269293A1, “PYRAZOLE DERIVATIVES AS ANTI-PLATELET AND ANTI-THROMBOTIC AGENTS” (Pfizer Inc., priority 2006, published 2008)

Molecular target: T1, platelet P2Y1 receptor (Homo sapiens, UniProt P47900)
T1 construct: expressed in transfected cells
Assay: P2Y1 receptor binding assay ([β-33P]-2-thiomethyl ADP)
Conditions: binding of 0.3 nM [β-33P]-2-thiomethyl ADP, hP2Y1 expressing 132N1 cell membrane, 25° C., 60 minutes
Method: Conducting P2Y, Receptor Binding Assay
[β−^33P]-2-thiomethyl ADP (2100 Ci/mmol) was purchased from PerkinElmer, Protease Inhibitors Complete, EDTA-free, was purchased from Roche, and ADP (Adenosine diphosphate), MRS2179, and 2-thiomethy ADP (2-Me-S-ADP) were purchased from Sigma Chemical Co.
Binding of 0.3 nM [β-^33P]-2-thiomethyl ADP to platelet P2Y1 receptor in 132N1 cell membrane was carried out in triplicate at 25° C. with 96 well plate (Corning, 3365). Nonspecific binding was defined as binding in the presence of 1 μM of 2-Me-S-ADP. One […] of dimethyl sulfoxide (DMSO) or 1 μL of DMSO (Sigma-Aldrich, 472301) containing a test compound diluted to final assay concentrations of 0.1 nM to 1 mM were placed into each well of a Corning 96-well plate. A volume of 60 μL of buffer: 50 mM Tris pH 7.5 (Sigma, T-2194), 1 mM EDTA (Gibco, 15575-038) and 100 mM NaCl (Gibco, 200740-011) containing 0.3 nM [β-^33P]-2-thiomethyl ADP 40 μL of hP2Y1 expressing 132N1 cell membrane prep was added to each well. After incubation on shaker for 60 minutes, The contents of the wells are filtered and washed 8 times with Tomtec Cell Harvester through UniFilter 96, GF/B plates (PerkinElmer, 6005177) Forty five microliters […] Scintillation cocktail (Ultima-Flo-M) was added into each well and plates counted on a Trilux Microbeta Counter.
• 1. Add 1 μL DMSO or compounds into the wells according to the protocol. • 2. Add 60 μL incubation buffer with [β-^33P]-2-thiomethyl ADP into each well. • 3. Add 40 μL hP2Y1 expressing 132N1 cell membrance prep. Incubate 60 minutes on top of the shaker (IKA Shutter MTS4). • 4. Filter and wash 8× with Tomtec Cell Harvester through UniFilter GF/B plates (PerkinElmer, 6005177). • 5. Add 45 μL scintillation cocktail into each well and plates counted on a Trilux Microbeta Counter.

T1 sequence (P47900 whole entry): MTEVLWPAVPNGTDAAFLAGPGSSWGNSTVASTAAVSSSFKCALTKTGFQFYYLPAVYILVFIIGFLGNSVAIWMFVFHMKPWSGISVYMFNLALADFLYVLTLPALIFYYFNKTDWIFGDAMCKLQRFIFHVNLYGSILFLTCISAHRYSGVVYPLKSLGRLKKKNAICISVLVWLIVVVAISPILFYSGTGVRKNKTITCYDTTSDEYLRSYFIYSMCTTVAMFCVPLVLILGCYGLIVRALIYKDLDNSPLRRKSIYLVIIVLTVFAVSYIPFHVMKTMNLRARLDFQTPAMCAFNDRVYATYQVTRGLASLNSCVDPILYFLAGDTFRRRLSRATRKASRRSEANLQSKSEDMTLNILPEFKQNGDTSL

SMILES	IC50 [nM]
CCc1ccccc1-n1nc(C)cc1Oc1ccccc1NC(=O)Nc1ccc(F)cc1F [Example 106, 1-(2,4-difluorophenyl)-3-(2-(1-(2-ethylphenyl)-3-methyl-1H-pyrazol-5-yloxy)phenyl)urea]	287
CCc1ccccc1-n1nc(C)cc1Oc1ccccc1NC(=O)Nc1ccc(C(C)C)cc1 [Example 104, 1-(2-(1-(2-ethylphenyl)-3-methyl-1H-pyrazol-5-yloxy)phenyl)-3-(4-isopropylphenyl)urea]	22
Cc1cc(Oc2ccccc2NC(=O)Nc2ccc(OC(F)(F)F)cc2)n(-c2ccc(F)cc2Cl)n1 [Example 114, 1-(2-(1-(2-chloro-4-fluorophenyl)-3-methyl-1H-pyrazol-5-yloxy)phenyl)-3-(4-(trifluoromethoxy)phenyl)urea]	12
Cc1cc(Oc2ccccc2NC(=O)Nc2ccc(C3CCN(C)CC3)cc2)n(-c2ccccc2Cl)n1 [Example 122, 1-(2-(1-(2-chlorophenyl)-3-methyl-1H-pyrazol-5-yloxy)phenyl)-3-(4-(1-methylpiperidin-4-yl)phenyl)urea]	> 10000
Cc1cc(Oc2ccccc2NC(=O)Nc2c(C)cccc2C)n(-c2ccccc2)n1 [Example 58]	> 10000
Cc1cc(Oc2ccccc2NC(=O)Nc2ccc(OC(F)(F)F)cc2)n(-c2cccc(Cl)c2F)n1 [Example 88, 1-{2-[2-(3-Chloro-2-fluoro-phenyl)-5-methyl-2H-pyrazol-3-yloxy]-phenyl}-3-(4-trifluoromethoxy-phenyl)-urea]	149
CCc1ccccc1-n1nc(C)cc1Oc1ccccc1NC(=O)Nc1ccc(C2CCCCC2)cc1 [Example 108, 1-(4-cyclohexylphenyl)-3-(2-(1-(2-ethylphenyl)-3-methyl-1H-pyrazol-5-yloxy)phenyl)urea]	12
Cc1cc(Oc2ccccc2NC(=O)Nc2ccc(OC(F)(F)F)cc2)n(-c2ccc(F)cc2F)n1 [Example 14]	133
Cc1cc(Oc2ccccc2NC(=O)Nc2cc(F)ccc2F)n(-c2ccccc2)n1 [Example 34]	800
Cc1cc(Oc2ncccc2NC(=O)Nc2ccc(C(C)(C)C)cc2)n(-c2ccccc2)n1 [Example 21, 1-(4-tert-Butyl-phenyl)-3-[2-(5-methyl-2-phenyl-2H-pyrazol-3-yloxy)-pyridin-3-yl]-urea]	272
Cc1cc(Oc2ncccc2NC(=O)Nc2ccc(OC(F)(F)F)cc2)n(-c2ccccc2Cl)n1 [Example 22, 1-{2-[2-(2-Chloro-phenyl)-5-methyl-2H-pyrazol-3-yloxy]-pyridin-3-yl}-3-(4-trifluoromethoxy-phenyl)-urea]	139
CCc1cc(Oc2ccccc2NC(=O)Nc2ccc(OC(F)(F)F)cc2)n(-c2ccccc2)n1 [Example 28, 1-[2-(5-Ethyl-2-phenyl-2H-pyrazol-3-yloxy)-phenyl]-3-(4-trifluoromethoxy-phenyl)-urea]	> 10000
Cc1cc(Oc2ccncc2NC(=O)Nc2ccc(OC(F)(F)F)cc2)n(-c2ccccc2)n1 [Example 23, 1-[4-(5-Methyl-2-phenyl-2H-pyrazol-3-yloxy)-pyridin-3-yl]-3-(4-trifluoromethoxy-phenyl)-urea]	8990
Cc1cc(Oc2ccccc2NC(=O)Nc2ccc(OC(F)(F)F)cc2)n(-c2ccccc2Br)n1 [Example 125, 1-(2-(1-(2-bromophenyl)-3-methyl-1H-pyrazol-5-yloxy)phenyl)-3-(4-(trifluoromethoxy)phenyl)urea]	182
Cc1cc(Oc2ccccc2NC(=O)Nc2ccc(OC(F)(F)F)cc2)n(-c2ccccc2C(C)C)n1 [Example 113, 1-(2-(1-(2-isopropylphenyl)-3-methyl-1H-pyrazol-5-yloxy)phenyl)-3-(4-(trifluoromethoxy)phenyl)urea]	57
O=C(Nc1ccc(OC(F)(F)F)cc1)Nc1ccccc1Oc1ccnn1-c1ccccc1Cl [Example 25, 1-{2-[2-(2-Chloro-phenyl)-2H-pyrazol-3-yloxy]-phenyl}-3-(4-trifluoromethoxy-phenyl)-urea]	268
Cc1cc(Oc2ccccc2NC(=O)Nc2ccc(OC(F)(F)F)cc2)n(-c2ccc(F)cc2)n1 [Example 15]	283
CCCc1ccccc1-n1nc(C)cc1Oc1ccccc1NC(=O)Nc1ccc(OC(F)(F)F)cc1 [Example 119, 1-(2-(1-(2-propylphenyl)-3-methyl-1H-pyrazol-5-yloxy)phenyl)-3-(4-(trifluoromethoxy)phenyl)urea]	88
Cc1cc(Oc2ccccc2NC(=O)Nc2ccc(OC(F)(F)F)cc2)n(-c2ccc(Cl)cc2Cl)n1 [Example 20]	150
Cc1cc(Oc2ccccc2NC(=O)Nc2ccc(C(C)(C)C)cc2)n(-c2ccccc2Cl)n1 [Example 6]	95
CCc1ccccc1-n1nc(C)cc1Oc1ccccc1NC(=O)Nc1ccc(OC(C)C)cc1 [Example 109, 1-(2-(1-(2-ethylphenyl)-3-methyl-1H-pyrazol-5-yloxy)phenyl)-3-(4-isopropoxyphenyl)urea]	198

SMILES	IC50 [nM]
Cc1cc(Oc2ccccc2NC(=O)Nc2ccc(OC(F)(F)F)cc2)n(-c2cccc(Cl)c2)n1 [Example 7]	122
Cc1cc(Oc2ccccc2NC(=O)Nc2ccc(OC(F)(F)F)cc2)n(-c2cc(Cl)ccc2Cl)n1 [Example 98, 1-(2-(1-(2,5-dichlorophenyl)-3-methyl-1H-pyrazol-5-yloxy)phenyl)-3-(4-(trifluoromethoxy)phenyl)urea]	68
Cc1ccc(NC(=O)Nc2ccccc2Oc2cc(C)nn2-c2ccccc2)c(C)c1 [Example 60]	> 10000
CCc1ccccc1-n1nc(C)cc1Oc1ccccc1NC(=O)Nc1ccccc1 [Example 95, 1-(2-(1-(2-ethylphenyl)-3-methyl-1H-pyrazol-5-yloxy)phenyl)-3-phenylurea]	689
CCOC(=O)C(C)(C)c1ccc(NC(=O)Nc2ccccc2Oc2cc(C)nn2-c2ccccc2Cl)cc1 [Example 83, 2-[4-(3-{2-[2-(2-Chloro-phenyl)-5-methyl-2H-pyrazol-3-yloxy]-phenyl}-ureido)-phenyl]-2-methyl-propionic acid ethyl ester]	3390
Cc1cc(Oc2ccccc2NC(=O)Nc2cc(F)ccc2C)n(-c2ccccc2)n1 [Example 48]	> 10000
Cc1cc(Oc2ccccc2NC(=O)Nc2ccc(OC(F)(F)F)cc2)n(-c2cccc(F)c2)n1 [Example 17]	307
Cc1cc(Oc2cc(C)c(F)cc2NC(=O)Nc2ccc(OC(F)(F)F)cc2)n(-c2ccccc2)n1 [Example 30]	1240
Cc1cc(Oc2ccccc2NC(=O)Nc2ccc(C3CCCCC3)cc2)n(-c2ccc(F)cc2Cl)n1 [Example 115, 1-(2-(1-(2-chloro-4-fluorophenyl)-3-methyl-1H-pyrazol-5-yloxy)phenyl)-3-(4-cyclohexylphenyl)urea]	18
Cc1cc(Oc2ccccc2NC(=O)Nc2ccc(C3CCOCC3)cc2)n(-c2ccccc2Cl)n1 [Example 128, 1-(2-(1-(2-chlorophenyl)-3-methyl-1H-pyrazol-5-yloxy)phenyl)-3-(4-(tetrahydro-2H-pyran-4-yl)phenyl)urea]	763
CSc1ccc(NC(=O)Nc2ccccc2Oc2cc(C)nn2-c2ccccc2)cc1 [Example 39]	2220
CCOc1ccc(NC(=O)Nc2ccccc2Oc2cc(C)nn2-c2ccccc2)cc1 [Example 41]	5060
Cc1cc(Oc2ccccc2NC(=O)Nc2cccc(F)c2)n(-c2ccccc2)n1 [Example 38]	1910
Cc1cc(Oc2ccccc2NC(=O)Nc2cccc(C(F)(F)F)c2)n(-c2ccccc2)n1 [Example 36]	1300
CC(=O)N1CCC(c2ccc(NC(=O)Nc3ccccc3Oc3cc(C)nn3-c3ccccc3Cl)cc2)CC1 [Example 121, 1-(4-(1-acetylpiperidin-4-yl)phenyl)-3-(2-(1-(2-chlorophenyl)-3-methyl-1H-pyrazol-5-yloxy)phenyl)urea]	> 10000
Cc1cc(Oc2ccccc2NC(=O)Nc2ccc(C3CCCC3)cc2)n(-c2ccccc2Cl)n1 [Example 124, 1-(2-(1-(2-chlorophenyl)-3-methyl-1H-pyrazol-5-yloxy)phenyl)-3-(4-cyclopentylphenyl)urea]	32
CCc1ccccc1-n1nc(C)cc1Oc1ccccc1NC(=O)Nc1ccc(OC(F)(F)F)cc1 [Example 3]	48
COC(=O)c1ccc(NC(=O)Nc2ccccc2Oc2cc(C)nn2-c2ccccc2Cl)cc1 [Example 86, 4-(3-{2-[2-(2-Chloro-phenyl)-5-methyl-2H-pyrazol-3-yloxy]-phenyl}-ureido)-benzoic acid methyl ester]	5060
CCc1ccccc1-n1nc(C)cc1Oc1ccccc1NC(=O)Nc1ccc(OC)cc1 [Example 103, 1-(2-(1-(2-ethylphenyl)-3-methyl-1H-pyrazol-5-yloxy)phenyl)-3-(4-methoxyphenyl)urea]	564
Cc1cc(Oc2ccccc2NC(=O)Nc2ccc(OC(F)(F)F)cc2)n(-c2ccccc2C(F)(F)F)n1 [Example 8]	128
